Source: paper PMC7953027 (Journal of Pesticide Science, 2021)

Key:
Aedes albopictus EcRs = biological target: T1, Aedes albopictus EcRs (Aedes albopictus, UniProt Q9U3Y4); assay type: binding; conditions: for change in binding potency compared to the parent compound: 21, 22, 23 vs. 1, 28, 31 vs. 22; for pIC50 (M): Series II, [3H]PonA binding, NIAS-AeAl-2 cells, 30 min, 25°C, mean±SD
T1 sequence (Q9U3Y4 1-680): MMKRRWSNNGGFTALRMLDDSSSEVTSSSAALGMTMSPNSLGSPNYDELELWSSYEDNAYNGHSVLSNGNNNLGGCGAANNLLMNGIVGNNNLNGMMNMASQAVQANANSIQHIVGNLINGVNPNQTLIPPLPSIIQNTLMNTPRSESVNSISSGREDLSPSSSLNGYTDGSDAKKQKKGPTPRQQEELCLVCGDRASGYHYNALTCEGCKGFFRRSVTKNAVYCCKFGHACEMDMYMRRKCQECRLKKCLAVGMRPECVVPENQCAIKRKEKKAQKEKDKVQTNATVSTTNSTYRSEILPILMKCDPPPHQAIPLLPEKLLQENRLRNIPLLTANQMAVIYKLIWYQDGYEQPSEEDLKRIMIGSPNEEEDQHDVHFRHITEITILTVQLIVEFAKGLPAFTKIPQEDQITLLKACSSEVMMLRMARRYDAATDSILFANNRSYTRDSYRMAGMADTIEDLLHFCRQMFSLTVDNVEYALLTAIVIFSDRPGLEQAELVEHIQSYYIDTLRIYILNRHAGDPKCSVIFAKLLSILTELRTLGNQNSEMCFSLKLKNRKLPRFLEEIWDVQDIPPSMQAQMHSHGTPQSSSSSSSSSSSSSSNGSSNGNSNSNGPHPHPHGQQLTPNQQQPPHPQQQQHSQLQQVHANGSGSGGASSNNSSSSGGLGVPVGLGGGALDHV
T1 sequence (Q9U3Y3 1-485 partner): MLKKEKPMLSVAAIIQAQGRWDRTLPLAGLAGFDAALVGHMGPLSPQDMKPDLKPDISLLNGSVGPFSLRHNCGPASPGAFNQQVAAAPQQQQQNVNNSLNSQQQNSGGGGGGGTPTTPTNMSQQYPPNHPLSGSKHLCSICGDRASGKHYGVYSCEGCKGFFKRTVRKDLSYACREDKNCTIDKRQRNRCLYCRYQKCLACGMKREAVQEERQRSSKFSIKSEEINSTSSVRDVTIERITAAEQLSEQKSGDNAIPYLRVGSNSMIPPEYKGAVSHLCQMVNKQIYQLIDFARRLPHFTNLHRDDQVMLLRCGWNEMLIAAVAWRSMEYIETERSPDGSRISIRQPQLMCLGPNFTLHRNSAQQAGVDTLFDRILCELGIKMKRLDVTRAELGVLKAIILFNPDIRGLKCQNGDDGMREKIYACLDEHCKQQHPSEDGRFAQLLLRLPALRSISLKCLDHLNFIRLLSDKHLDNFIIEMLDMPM

A. albopictus larvae = experiment: Larvicidal assay on second-instar larvae; assay type: in vivo, Aedes albopictus; conditions: for mortality at 1 µM / LC50: Aedes albopictus, 72 h; for mortality at 1 µM: read-out: Mortality (%) at 1 µM Obsd.; for Logit A Obsd.: logit-transformed mortality at 1 µM based on Eq. 1; for LC50: read-out: pLC50 (M) (converted); for larvicidal activity (in words): 1 µM, 3 days

Compound	change in binding potency compared to the parent compound (Aedes albopictus EcRs)	pIC50 (M) (Aedes albopictus EcRs)	mortality at 1 µM (A. albopictus larvae)	Logit A Obsd. (A. albopictus larvae)	LC50 (A. albopictus larvae)	larvicidal activity (in words) (A. albopictus larvae)
Cc1ccc(C(=O)N2c3ccc(F)cc3[C@@H](Nc3ccccc3)C[C@H]2C)cn1 [Compound 28]	equipotent	6.64±0.08 (2) M	11%	−0.91		
C[C@@H]1C[C@H](Nc2ccccc2)c2cc(F)ccc2N1C(=O)c1ccc(C(F)(F)F)nc1 [Compound 30]		7.03±0.00 (2) M	44 ± 24%	−0.10	9.55e-07 M	
C[C@@H]1C[C@H](Nc2ccccc2)c2cc(F)ccc2N1C(=O)c1cncnc1 [Compound 26]		6.37±0.02 (2) M	5%	−1.28		
C[C@@H]1C[C@H](Nc2ccccc2)c2cc(F)ccc2N1C(=O)c1ccccn1 [Compound 21, (2R,4S)-6-fluoro-2-methyl-4-(phenylamino)-1-(2-pyridylcarbonyl)-1,2,3,4-tetrahydroquinoline]	threefold loss in potency	5.93±0.08 (2) M	0%			did not show larvicidal activity
C[C@@H]1C[C@H](Nc2ccccc2)c2cc(F)ccc2N1C(=O)c1cccnc1 [Compound 22]		6.76±0.15 (2) M	0%			did not show larvicidal activity
C[C@@H]1C[C@H](Nc2ccccc2)c2cc(F)ccc2N1C(=O)c1ccnnc1 [Compound 25]		6.51±0.13 (2) M	10%	−0.95		
C[C@@H]1C[C@H](Nc2ccccc2)c2cc(F)ccc2N1C(=O)c1cnc(Cl)nc1 [Compound 27]		6.11±0.12 (2) M	16%	−0.72		
C[C@@H]1C[C@H](Nc2ccccc2)c2cc(F)ccc2N1C(=O)c1ccc(Cl)nc1 [Compound 29]		7.09±0.07 (2) M	80%	0.60	4.57e-07 M	
C[C@@H]1C[C@H](Nc2ccccc2)c2cc(F)ccc2N1C(=O)c1ccnc(F)c1 [Compound 32]		7.47±0.08 (2) M	74 ± 11%	0.44	4.68e-07 M	
C[C@@H]1C[C@H](Nc2ccccc2)c2cc(F)ccc2N1C(=O)c1ccc(C#N)nc1 [Compound 31]	sevenfold gain in potency	7.61±0.08 (2) M	77 ± 19%	0.51	5.13e-07 M	
C[C@@H]1C[C@H](Nc2ccccc2)c2cc(F)ccc2N1C(=O)c1ccncc1 [Compound 23, (2R,4S)-6-fluoro-2-methyl-4-(phenylamino)-1-(4-pyridylcarbonyl)-1,2,3,4-tetrahydroquinoline]	eightfold gain in potency	7.29±0.03 (2) M	36 ± 14%	−0.24	2.57e-06 M	
C[C@@H]1C[C@H](Nc2ccccc2)c2cc(F)ccc2N1C(=O)c1ccnc(C(F)(F)F)c1 [Compound 34]		6.56±0.04 (2) M	0%			did not show larvicidal activity
C[C@@H]1C[C@H](Nc2ccccc2)c2cc(F)ccc2N1C(=O)c1ccnc(C#N)c1 [Compound 35]		6.55±0.07 (2) M	0%			did not show larvicidal activity
C[C@@H]1C[C@H](Nc2ccccc2)c2cc(F)ccc2N1C(=O)c1ccncn1 [Compound 24]		6.67±0.03 (2) M	10%	−0.95		
